Test system: BJ cells
Assay: Quantification of ESC-like (high-quality PSC morphology) colonies in reprogramming
Type: cell-based, human
Settings: BRD3R reprogramming vs control reprogramming
From the text: When combined with the 3F combination (OCT4, SOX2 and KLF4), BRD3R gave rise to abundant TRA-1-60^+ clusters as early as day 6, whereas such clusters were infrequent events before day 10 in the control reprogramming (3F alone and 3F-GFP) (FIGS. 8A and 8E). On day 10, TRA-1-60^+ cells in BRD3R dishes developed into colonies while controls contained only small clusters of TRA-1-60^+ cells (FIG. 8E). The number of high-quality PSC colonies was also compared (well-defined colony border, homogeneous iPSCs within each reprogramming colony, smooth colony surface, and typical morphology of pluripotent cells (small cells, large nucleus, and close cell contact)), BRD3R reprogramming gave rise to at least 57× more colonies with PSC morphology than controls (FIGS. 9A and 9B). In addition, the iPSC colonies generally were larger in BRD3R dishes than in the control dishes (FIG. 1E, and FIGS. 8C, 8E, 9B, and 12C).
• Cell culture and reprogramming: Human fibroblast cells (BJ ATCC CRL-2522®) were cultured in fibroblast medium: DMEM, 10% heat-inactivated FBS, 0.1 mM 2-mercaptoethanol, 100 U/ml penicillin, 100 μg/ml streptomycin, 0.1 mM MEM NEAA and 4 ng/ml human bFGF. For reprogramming, seed BJ cells into 24-well plate at 2×10^4 cells/well. […]

For “BRD3R: BRD3 with Reprogramming activity; 556 aa isoform of human BRD3 (AAH32124, SEQ ID NO: 47), encoded by cDNA L61”, the “more colonies with PSC morphology than controls” value was “at least 57 ×”.

From US20180163180A1, “METHOD OF ENHANCING SOMATIC CELL REPROGRAMMING WITH THE ACETYLLYSINE READER BRD3R” (THE UAB RESEARCH FOUNDATION, INC ., priority 2015, published 2018)
